Three molecules from patent US20260124213A1, “STAPHYLOCOCCUS AUREUS PBP4 INHIBITORS AND METHOD OF USE” (UNIVERSITY OF ROCHESTER, priority 2022, published 2026) can be followed below.

The target of data set [1] is recombinant B. subtilis PBP4 (Bacillus subtilis, UniProt P40750). As to the kind of experiment: BOCILLIN FL fluorescence polarization binding competition. The note with it: compound 50 μM; Ex. 3 series. As to the method:
PBP4 BOCILLIN™ FL Binding Competition Assays. The ability of putative PBP4 inhibitors to impact the active site of recombinant PBP4 was assessed using two previously established BOCILLIN™-FL Penicillin (Penicillin V conjugated to BODIPY fluorescent dye) binding assays. First, fluorescence polarization assays were performed as previously described. Briefly, the indicated amount of the putative PBP4 inhibitor or control antibiotic was incubated with 1 μM recombinant B. subtilis PBP4 or S. aureus PBP2a in potassium phosphate buffer (40 mM K2HPO4 and 10 mM KH2PO4) for 1 hour in black 96-well microtiter plates (Corning Life Sciences®, Corning, NY). Following incubation, 1 μM (final concentration) BOCILLIN™ FL penicillin was added, and the mixture was incubated for 30 minutes. BOCILLIN™ FL fluorescence polarization was measured at (495nm excitation and 545nm emission) in a SpectraMax® M5 multimode plate reader (Molecular Devices®, San Jose, CA). All assays were repeated at least 8 times, averaged, and values falling outside of 2 standard deviations were considered outliers. Resulting data was plotted as percentage BOCILLIN™ FL binding inhibition=(T/U)×100; T=FL polarization of ((PBP4+BOCILLIN™ FL)−(PBP4+BOCILLIN™ FL+inhibitor compound)), U=FL polarization of ((PBP4+BOCILLIN™ FL)−(BOCILLIN™ FL)). Second, gel electrophoresis and fluorescence detection were used to measure BOCILLIN™ FL labeling of PBP4 treated with the known PBP4 inhibitor cefoxitin (positive control), kanamycin (negative control) or 9314848 (test compound). Briefly, 1 μM of recombinant PBP4 was mixed with 0, 50, 500, 2000, or 5000 μM 9314848 or control antibiotic in 50 mM phosphate buffer (pH 7.4) and incubated at 37° C. for 30 minutes. Next 40 μM of BOCILLIN™ FL was added to the reaction mixture and incubated for an additional 30 minutes at 37° C. Reactions were stopped by adding 5×SDS-PAGE gel loading dye, heated at 100° C. for 3 minutes and separated by electrophoresis in 12% SDS-PAGE (2 h, 120 Volts). BOCILLIN™ FL labeled PBP4 was imaged at λ=365 nm using a BioRad© Gel Doc EZ™ Imaging system and the gel was then subsequently stained with Bio-safe Coomassie Brilliant Blue stain (BioRad©, Hercules, CA, USA) to measure the amount of protein present in each reaction condition and analyzed using NIH-ImageJ software. The percent BOCILLIN™ FL binding was calculated by first normalizing the protein present in each reaction condition to that of untreated control and subsequently applying each reaction's protein normalization factor to each reaction's fluorescent signal. The percentage BOCILLIN™ FL binding inhibition was then calculated as the normalized band intensity of antibiotic/compound treated sample as compared to control sample (PBP4+BOCILLIN™ FL in the absence of compound).
To more directly evaluate whether 9314848 is likely to affect PBP4 function, the compound's ability to bind recombinant PBP4 was measured using BOCILLIN™ FL fluorescence polarization displacement assays. The premise for the assay is that the fluorescence polarization of the fluorescently labeled β-lactam, penicillin V (BOCILLIN™ FL), will increase upon binding to its cognate target (i.e., PBP4). Further, compounds that bind PBP4 and inhibit its function would impede BOCILLIN™ FL binding thereby allowing assessment of the protein binding affinity of 9314848 using a simple fluorescence reduction assay.

In the next data set the test system is MRSA strain AH-2204. Description: Broth microdilution antibiotic potentiation. The class given is cell-based, Staphylococcus aureus. As to conditions: AH-2204. The protocol: (§1) Broth Microdilution Method for Antibiotic Potentiation with MRSA Strains. Bacteria were cultured for 6 hours in CAMHB and sub-cultured to 5×10^5 CFU/mL in CAMHB. Subcultures were aliquoted (4 mL) into culture tubes and then inoculated with compound from 10 mM or 100 mM stock in DMSO to the desired concentration. […]. Bacteria treated with antibiotic alone served as the control. Samples from the secondary culture tubes were then aliquoted (200 μL) into the first row of wells of a 96-well microtiter plate. Rows 2-11 were filled (100 μL) with the remaining 4 mL of bacterial subculture containing the adjuvant. Row 12 was filled (100 μL) with uninoculated media. From row 1, 100 μL was transferred to row two and mixed 5-8 times before being transferred to row 3. This procedure was used to serial dilute the rest of the rows through 10. The microtiter plate was then covered in Press 'n Seal and incubated at 37° C.
On the technique in general: Dilution methods test growth across graded concentrations, often in twofold steps.

For the next data set, the system named is MRSA strain AH-1263. Description: Broth microdilution antibiotic potentiation. The class given is cell-based, Staphylococcus aureus. As to conditions: AH-1263; for Ampicillin MIC / Ampicillin MIC fold reduction / Cefotaxime MIC / Oxacillin MIC: Ex. 3 compound at 60 μM (18 and 19 at 30 μM). As to the method: as §1
In data set [2] the test system is MRSA strain ATCC BAA-1556. As to the kind of experiment: Broth microdilution antibiotic potentiation. Format: cell-based, Staphylococcus aureus. The note with it: ATCC BAA-1556. The protocol: as §1
The next data set deals with HEPG2 cells. As to the kind of experiment: MTT cell viability / mammalian cytotoxicity. The class given is cell-based, human. As to conditions: compound at 100 μM; HEPG2 cells approximately 2.5 × 10^5 cells/mL. The protocol: Eukaryotic Toxicity Testing. Two rounds of eukaryotic toxicity testing were performed. Initially hits of interest were evaluated for antifungal activity in high throughput manner. To do so, 10^5 CFU of Saccharomyces cerevisiae YSB1001 cells (10 μL) were inoculated into individual wells of a microtiter plate containing yeast peptone dextrose media (88 μL) and 50 μM of each hit (2 μL). […] More extensive mammalian cytotoxicity testing was performed on the indicated highest priority hits of interest following International Organization for Standardization guidelines. Briefly, human liver epithelial cells (HEPG2) were cultured in Dulbecco's modified Eagle medium (DMEM; Fisher Scientific®) supplemented with 10% heat inactivated fetal bovine serum (FBS; Corning Life Sciences, Corning, NY) and 1% penicillin and streptomycin. Cells were incubated at 37° C. with 5% CO2 in Nunc™ tissue culture flasks (Roskilde, Denmark) until reaching 70% confluency. Cells were removed with 0.25% trypsin (Fisher Scientific®), resuspended in fresh medium, and used to seed approximately 2.5×10^5 mL^−1 cells into individual wells of a 96 well tissue culture microplate (Nunc™) containing 200 μL of fresh medium, and incubated for 24 hours. […] Mixtures were incubated for 20-24 h at 37° C. with 5% CO2, the media was removed and replaced with 100 μL fresh media and 10 μL of 12 mM (3-(4,5-dimethylthiazol-2-yl)-2,5-diphenyltetrazolium bromide (MTT) reagent (Cyquant™ Cell Viability kit; Invitrogen™, Carlsbad, CA) was added to each well. Cells were incubated at 37° C. with 5% CO2 for 2-4 hour, 85 μL of media was removed and the remainder was mixed with 50 μL DMSO and incubated for an additional 10 minutes at 37° C. in the dark. Using a SpectraMax® M5 microplate reader, cell viability was recorded as absorbance at OD540 nm. All compounds were tested in triplicate and cell viability was expressed as a percent viability of treated cells in comparison to mock treated cells. […]

For a further data set, the system named is recombinant PBP4. As to the kind of experiment: BOCILLIN FL labeling of PBP4, gel electrophoresis and fluorescence detection. The class given is binding. The note with it: kanamycin 2000 μM or 5000 μM. The protocol: PBP4 BOCILLIN™ FL Binding Competition Assays. The ability of putative PBP4 inhibitors to impact the active site of recombinant PBP4 was assessed using two previously established BOCILLIN™-FL Penicillin (Penicillin V conjugated to BODIPY fluorescent dye) binding assays. First, fluorescence polarization assays were performed as previously described. Briefly, the indicated amount of the putative PBP4 inhibitor or control antibiotic was incubated with 1 μM recombinant B. subtilis PBP4 or S. aureus PBP2a in potassium phosphate buffer (40 mM K2HPO4 and 10 mM KH2PO4) for 1 hour in black 96-well microtiter plates (Corning Life Sciences®, Corning, NY). […] BOCILLIN™ FL fluorescence polarization was measured at (495nm excitation and 545nm emission) in a SpectraMax® M5 multimode plate reader (Molecular Devices®, San Jose, CA). […] Second, gel electrophoresis and fluorescence detection were used to measure BOCILLIN™ FL labeling of PBP4 treated with the known PBP4 inhibitor cefoxitin (positive control), kanamycin (negative control) or 9314848 (test compound). […] BOCILLIN™ FL labeled PBP4 was imaged at λ=365 nm using a BioRad© Gel Doc EZ™ Imaging system and the gel was then subsequently stained with Bio-safe Coomassie Brilliant Blue stain (BioRad©, Hercules, CA, USA) to measure the amount of protein present in each reaction condition and analyzed using NIH-ImageJ software. […]

[3] abbreviates: Ex. 3 compound at 60 μM (18 and 19 at 30 μM).
Where [4] appears, read: Staphylococcus aureus, MRSA, read-out: Cefoxitin MIC, no compound (—).

recombinant B. subtilis PBP4, sequence (P40750 22-624): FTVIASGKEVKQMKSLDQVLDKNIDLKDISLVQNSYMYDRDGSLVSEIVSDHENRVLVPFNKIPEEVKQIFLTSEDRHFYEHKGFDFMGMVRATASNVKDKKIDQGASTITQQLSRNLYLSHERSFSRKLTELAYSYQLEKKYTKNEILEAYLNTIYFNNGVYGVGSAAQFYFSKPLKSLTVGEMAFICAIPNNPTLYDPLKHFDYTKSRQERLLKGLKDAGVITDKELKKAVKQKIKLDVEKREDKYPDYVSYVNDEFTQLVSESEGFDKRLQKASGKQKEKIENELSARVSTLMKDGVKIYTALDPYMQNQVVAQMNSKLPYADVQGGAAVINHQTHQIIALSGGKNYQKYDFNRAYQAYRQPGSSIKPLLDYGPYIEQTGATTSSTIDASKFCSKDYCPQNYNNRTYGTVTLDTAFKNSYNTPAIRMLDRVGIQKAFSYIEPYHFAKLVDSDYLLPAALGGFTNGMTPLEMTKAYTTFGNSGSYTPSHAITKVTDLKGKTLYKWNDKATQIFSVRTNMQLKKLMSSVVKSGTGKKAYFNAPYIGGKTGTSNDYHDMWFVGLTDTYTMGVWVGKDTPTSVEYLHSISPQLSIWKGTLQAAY

For the molecule `O=C(Nc1ccc2[nH]c(-c3cc(Cl)cc(Cl)c3)nc2c1)c1ccco1` [Compound 33, N-(2-(3,5-Dichlorophenyl)-1H-benzo[d]imidazol-5-yl)furan-2-carboxamide], the “Percentage Bocillin Displacement (%), PBP4 binding” value in data set [1] is 56.5 ± 35.6%. In addition, in the data set on MRSA strain AH-2204 (setting [3]), the “Ampicillin MIC” value was 2 µg/mL, the “Cefotaxime MIC” value is 16 µg/mL, the “Oxacillin MIC” value turned out to be 4 µg/mL and the “Oxacillin MIC fold reduction” value is “(8)”. For the same molecule, in the data set with MRSA strain AH-1263, the “Ampicillin MIC” value turned out to be 1 µg/mL, the “Ampicillin MIC fold reduction” value is on record as “(16)”, the “Cefotaxime MIC” value was found to be 32 µg/mL and the “Oxacillin MIC” value came out at 16 µg/mL. Also, in data set [2] (setting [3]), the “Ampicillin MIC” value stood at 16 µg/mL, the “Cefotaxime MIC” value was found to be 16 µg/mL, the “Cefotaxime MIC fold reduction” value is “(2)” and the “Oxacillin MIC” value was 16 µg/mL. Besides, the “Oxacillin MIC fold reduction” value in data set [2] (setting [3]) is recorded as “(2)”. Further, in the data set with HEPG2 cells, the “Toxicity with HEPG2 Cells (cell viability)” value is listed as 151 ± 11.3%.

By MIC is commonly meant the smallest concentration in the dilution series that meets the test's criterion for growth inhibition. Regarding `CO[C@@]1(NC(=O)Cc2cccs2)C(=O)N2C(C(=O)O)=C(COC(N)=O)CS[C@@H]21` [Cefoxitin, cefoxitin], the MIC in the data set with MRSA strain AH-2204 (setting [4]) was 2 µg/mL; in the data set with MRSA strain AH-1263 (setting [4]), 4 µg/mL; in data set [2] (Staphylococcus aureus, read-out: Cefoxitin MIC, no compound (—)), 8 µg/mL. In the data set on recombinant PBP4, the “Effect of preincubation on BOCILLIN FL labeling of PBP4 (gel)” value is on record as “reduced the protein's ability to bind the fluorescent substrate in a dose-dependent manner”.

With `O=C(Nc1ccc2[nH]c(C3CCCCC3)nc2c1)c1ccco1` [Compound 34, N-(2-Cyclohexyl-1H-benzo[d]imidazol-5-yl)furan-2-carboxamide], the “Percentage Bocillin Displacement (%), PBP4 binding” value in data set [1] is listed as 60.3 ± 43.8%. Moreover, in the data set on MRSA strain AH-2204 (setting [3]), the “Ampicillin MIC” value worked out at 2 µg/mL, the “Cefotaxime MIC” value came to 8 µg/mL, the “Cefotaxime MIC fold reduction” value was “(2)” and the “Oxacillin MIC” value was 8 µg/mL. For the same molecule, the “Oxacillin MIC fold reduction” value with MRSA strain AH-2204 (setting [3]) is given as “(4)”. Also, in the data set with MRSA strain AH-1263, the “Ampicillin MIC” value was found to be 2 µg/mL, the “Ampicillin MIC fold reduction” value was “(8)”, the “Cefotaxime MIC” value is 32 µg/mL and the “Oxacillin MIC” value was 16 µg/mL. In addition, in data set [2] (setting [3]), the “Ampicillin MIC” value was found to be 16 µg/mL, the “Cefotaxime MIC” value came to 32 µg/mL and the “Oxacillin MIC” value came out at 32 µg/mL. Moreover, in the data set with HEPG2 cells, the “Toxicity with HEPG2 Cells (cell viability)” value stood at 97 ± 5.8%.
